Experimental data taken from US20200276094A1, “COMPOSITIONS FOR SKIN EXPOLIATION AND USE THEREOF” (Allergan, Inc., priority 2011, published 2020).
“Also recorded” adds a separate entry of the source.

How the values were obtained:
[1] = system: subjects with mild to moderate photodamage; assay: Study 3: Retinol 3% (oil-free) vs. RA 0.3%, split-face single-blind clinical study, series of three peel procedures
[2] = system: subjects having Fitzpatrick Skin Types I-IV; conditions: split-face: Retinoic Acid 0.3% right side vs Retinol 2% left side; 7-day; FIG. 1
[3] = FIG. 8, post-peel #3, blinded photograph evaluation by an expert physician

Structure (SMILES) | subjects preferred treated side, post-peel #1 subject assessment ([1]; FIG. 5) | subjects preferred treated side, post-peel #2 subject assessment ([1]; FIG. 6) | subjects preferred treated side, post-peel #3 subject assessment ([1]; FIG. 7) | stinging/burning and tightness (investigator and subject assessments) [2] | investigator noticed no difference between the sides ([1]; FIG. 4, Retinol 3% (oil-free) vs Retinoic Acid 0.3%) | subjects felt no difference between the sides, post-peel #1 ([1]; FIG. 5, Retinol 3% (oil-free) vs Retinoic Acid 0.3%) | subjects felt no difference between the sides, post-peel #2 ([1]; FIG. 6, Retinol 3% (oil-free) vs Retinoic Acid 0.3%) | subjects felt no difference between the sides, post-peel #3 ([1]; FIG. 7, Retinol 3% (oil-free) vs Retinoic Acid 0.3%) | improvement in fine lines and wrinkles compared to retinoic acid [1, 3] | improvement in photodamage compared to retinoic acid [1, 3] | improvement in unevenness of skin tone compared to retinoic acid [1, 3] | subjects demonstrating a difference favoring the treated side ([1]; end of treatment, one subject) [%] | adverse reaction on treated side ([1]; one subject, treated with topical hydrocortisone for 3 days, resolved, no reaction on re-challenge)
CC1=C(/C=C/C(C)=C/C=C/C(C)=C/C(=O)O)C(C)(C)CCC1 [Retinoic Acid] | 10 % of subjects | 10 % of subjects | 0 % of subjects | more | – | – | – | – | – | – | – | – | –
CC1=C(/C=C/C(C)=C/C=C/C(C)=C/CO)C(C)(C)CCC1 [retinol, (2E,4E,6E,8E)-3,7-dimethyl-9-(2,6,6-trimethylcyclohex-1-enyl)nona-2,4,6,8-tetraen-1-ol] | 15 % of subjects | 5 % of subjects | 5 % of subjects | – | 95 % of subjects | 75 % of subjects | 85 % of subjects | 95 % of subjects | about twice as much improvement; also recorded: superior efficacy | about twice as much improvement; also recorded: superior efficacy | about twice as much improvement; also recorded: superior efficacy | 5 | irritation (rash, redness)
